Marks after values point to notes of the source that are not given here.
Columns and labels:
[1] = system: HCT-116 human colon cancer xenografts; experiment: Tumor growth inhibition of HCT-116 human colon cancer xenografts in nude mice; assay type: in vivo, Balb/c nude mice; details: for Relative tumor proliferation rate (T/C %) / Relative tumor volume (RTV) / Tumor growth inhibition rate (TGI %) / Tumor volume of HCT-116 human colon cancer xenografts: single IP injection (QD×1), D1 and D2 400 mg/kg, D3 350 mg/kg, D4 300 mg/kg; for Tumor volume of HCT-116 human colon cancer xenografts: Mean±SEM
Protocol: 2. Preparation of the test substance was performed by dissolving the test substance using the following solvents:
3. Animal experiments were performed. […] Animals were numbered using their tail number.
4.1 Tumor cells were human HCT-116 colon cancer cells purchased from the Institute of Cell Biology, Chinese Academy of Sciences (Beijing, China). F-12 medium (containing 10% FBS) was used to culture cells in a carbon dioxide incubator at about 37° C., saturated humidity, under 5% CO2 and 95% air. Before inoculation, cells in logarithmic growth phase were collected. After digested by 0.25% trypsin, the cells were washed with PBS once. The cells were resuspended with serum-free medium and counted. Serum-free medium were used for cell resuspension, until the cell concentration was adjusted to about 3×10^7 cell/mL.
4.2 Animal inoculation and grouping were performed.
The diameters (D) of the tumor nodules were measured three times a week with a circle sizer ruler. In addition, the following formula was applied to calculate the volume of the tumor nodules (V): V=[…](D/2)^3 generally for a spherical shape. Evaluation indexes of antitumor activity were tumor growth inhibition rate TGI (%) and relative tumor proliferation rate T/C (%).
The calculation formula of TGI was: TGI (%)=(Vcontrol−VTreatment)/Vcontrol)×100%. The relative tumor volume (RTV) was calculated by: RTV=Vt/V0, where V0 is the tumor volume at the time of group administration, and Vt is the tumor volume at the time of measurement.
The mice were weighed 3 times every week.
4.5 Data and statistical analysis were provided.

[2] = Body weight / toxicity of a single intraperitoneal injection in HCT-116 colon tumor-bearing nude mice; details: for Average rate of weight change of the animals / Average weight of the animals: single IP injection (QD×1), D1 and D2 400 mg/kg, D3 350 mg/kg, D4 300 mg/kg; for Average weight of the animals: Mean±SEM
[3] = D1 400 mg/kg Day 7, D2 400 mg/kg Day 9, D3 350 mg/kg Day 11, D4 300 mg/kg Day 11, single IP

Compound: CCCCOC(=O)Nc1ccn(C2OC(COC(=O)CCCC(=O)OC[C@H]3O[C@@H](n4ccc(NC(=O)OCCCC)nc4=O)C(F)(F)[C@@H]3OC(=O)OCCCC)C(OC(=O)OCCCC)C2(F)F)c(=O)n1 (stereo in doubt) [Compound D1, 1,5-di-[4-N-(n-butyloxycarbonyl)-3′-O-(n-butoxycarbonyl)-2′-deoxy-2′,2′-difluoro-cytidine]glutarate]
- Relative tumor proliferation rate, minimum [1, 3]: 28.36%
- Tumor inhibition rate, maximum [1, 3]: 91.49%
- Relative tumor proliferation rate (T/C %) ([1]; Day 0): 0.00%
- Relative tumor volume (RTV) ([1]; Day 0): 1.00
- Tumor growth inhibition rate (TGI %) ([1]; Day 0): 0.00%
- Tumor volume of HCT-116 human colon cancer xenografts ([1]; Day 0): 39.36 ± 6.16** mm^3
- Relative tumor proliferation rate (T/C %) ([1]; Day 1): 80.13%
- Relative tumor volume (RTV) ([1]; Day 1): 1.35 ± 0.24
- Tumor growth inhibition rate (TGI %) ([1]; Day 1): 67.76%
- Tumor volume of HCT-116 human colon cancer xenografts ([1]; Day 1): 58.20 ± 17.45** mm^3
- Relative tumor proliferation rate (T/C %) ([1]; Day 2): 65.15%
- Relative tumor volume (RTV) ([1]; Day 2): 1.35 ± 0.24
- Tumor growth inhibition rate (TGI %) ([1]; Day 2): 73.77%
- Tumor volume of HCT-116 human colon cancer xenografts ([1]; Day 2): 58.20 ± 17.45** mm^3
- Relative tumor proliferation rate (T/C %) ([1]; Day 4): 32.20%
- Relative tumor volume (RTV) ([1]; Day 4): 0.89 ± 0.12
- Tumor growth inhibition rate (TGI %) ([1]; Day 4): 87.46%
- Tumor volume of HCT-116 human colon cancer xenografts ([1]; Day 4): 37.24 ± 9.27** mm^3
- Relative tumor proliferation rate (T/C %) ([1]; Day 7): 28.36%
- Relative tumor volume (RTV) ([1]; Day 7): 1.16 ± 0.79
- Tumor growth inhibition rate (TGI %) ([1]; Day 7): 91.49%
- Tumor volume of HCT-116 human colon cancer xenografts ([1]; Day 7): 36.82 ± 28.63** mm^3
- Relative tumor proliferation rate (T/C %) ([1]; Day 9): 28.77%
- Relative tumor volume (RTV) ([1]; Day 9): 1.61 ± 0.98
- Tumor growth inhibition rate (TGI %) ([1]; Day 9): 91.42%
- Tumor volume of HCT-116 human colon cancer xenografts ([1]; Day 9): 50.63 ± 36.49** mm^3
- Relative tumor proliferation rate (T/C %) ([1]; Day 11): 34.47%
- Relative tumor volume (RTV) ([1]; Day 11): 3.18 ± 2.18
- Tumor growth inhibition rate (TGI %) ([1]; Day 11): 89.65%
- Tumor volume of HCT-116 human colon cancer xenografts ([1]; Day 11): 101.02 ± 78.57** mm^3
- Relative tumor proliferation rate (T/C %) ([1]; Day 14): 64.15%
- Relative tumor volume (RTV) ([1]; Day 14): 8.88 ± 6.75
- Tumor growth inhibition rate (TGI %) ([1]; Day 14): 80.16%
- Tumor volume of HCT-116 human colon cancer xenografts ([1]; Day 14): 285.66 ± 237.94* mm^3
- Relative tumor proliferation rate (T/C %) ([1]; Day 16): 89.47%
- Relative tumor volume (RTV) ([1]; Day 16): 15.44 ± 11.56
- Tumor growth inhibition rate (TGI %) ([1]; Day 16): 72.62%
- Tumor volume of HCT-116 human colon cancer xenografts ([1]; Day 16): 495.95 ± 408.8** mm^3
- Relative tumor proliferation rate (T/C %) ([1]; Day 18): 106.69%
- Relative tumor volume (RTV) ([1]; Day 18): 20.37 ± 13.96
- Tumor growth inhibition rate (TGI %) ([1]; Day 18): 67.62%
- Tumor volume of HCT-116 human colon cancer xenografts ([1]; Day 18): 647.07 ± 503.28** mm^3
- Relative tumor proliferation rate (T/C %) ([1]; Day 21): 138.14%
- Relative tumor volume (RTV) ([1]; Day 21): 32.34 ± 20.40
- Tumor growth inhibition rate (TGI %) ([1]; Day 21): 58.38%
- Tumor volume of HCT-116 human colon cancer xenografts ([1]; Day 21): 1017.61 ± 749.53 mm^3
- Relative tumor proliferation rate (T/C %) ([1]; Day 23): 163.55%
- Relative tumor volume (RTV) ([1]; Day 23): 32.34 ± 20.40
- Tumor growth inhibition rate (TGI %) ([1]; Day 23): 56.91%
- Tumor volume of HCT-116 human colon cancer xenografts ([1]; Day 23): 1017.61 ± 749.53 mm^3
- Relative tumor proliferation rate (T/C %) ([1]; Day 25): 155.09%
- Relative tumor volume (RTV) ([1]; Day 25): 33.53 ± 19.21
- Tumor growth inhibition rate (TGI %) ([1]; Day 25): 59.56%
- Tumor volume of HCT-116 human colon cancer xenografts ([1]; Day 25): 1044.35 ± 722.80 mm^3
- Relative tumor proliferation rate (T/C %) ([1]; Day 28): 198.76%
- Relative tumor volume (RTV) ([1]; Day 28): 42 ± 22
- Tumor growth inhibition rate (TGI %) ([1]; Day 28): 51.78%
- Tumor volume of HCT-116 human colon cancer xenografts ([1]; Day 28): 1296.79 ± 847.87 mm^3
- Relative tumor proliferation rate (T/C %) ([1]; Day 30): 209.10%
- Relative tumor volume (RTV) ([1]; Day 30): 51.88 ± 24.88
- Tumor growth inhibition rate (TGI %) ([1]; Day 30): 43.36%
- Tumor volume of HCT-116 human colon cancer xenografts ([1]; Day 30): 1589.29 ± 983.15 mm^3
- Body weight after drug administration (in words) ([2]; D1 400 mg/kg, single IP, Day 4): significantly decreased
- Average rate of weight change of the animals ([2]; Day 0): 0.00%
- Average weight of the animals ([2]; Day 0): 19.98 ± 0.49 g
- Average rate of weight change of the animals ([2]; Day 1): −2.55 ± 0.77%
- Average weight of the animals ([2]; Day 1): 19.48 ± 0.58 g
- Average rate of weight change of the animals ([2]; Day 2): −12.18 ± 2.63 %
- Average weight of the animals ([2]; Day 2): 17.45 ± 0.81 g
- Average rate of weight change of the animals ([2]; Day 4): −18.58 ± 4.66 %
- Average weight of the animals ([2]; Day 4): 16.15 ± 1.08 g
- Average rate of weight change of the animals ([2]; Day 7): −4.23 ± 3.77%
- Average weight of the animals ([2]; Day 7): 19.80 ± 1.40 g
- Average rate of weight change of the animals ([2]; Day 9): 0.42 ± 1.92%
- Average weight of the animals ([2]; Day 9): 20.75 ± 1.05 g
- Average rate of weight change of the animals ([2]; Day 11): 2.77 ± 4.27%
- Average weight of the animals ([2]; Day 11): 21.25 ± 1.55 g
- Average rate of weight change of the animals ([2]; Day 14): 3.29 ± 3.29%
- Average weight of the animals ([2]; Day 14): 21.35 ± 1.35 g
- Average rate of weight change of the animals ([2]; Day 16): 5.24 ± 2.74%
- Average weight of the animals ([2]; Day 16): 21.75 ± 1.25 g
- Average rate of weight change of the animals ([2]; Day 18): 12.70 ± 4.20 %
- Average weight of the animals ([2]; Day 18): 23.30 ± 1.60 g
- Average rate of weight change of the animals ([2]; Day 21): 7.90 ± 2.90 %
- Average weight of the animals ([2]; Day 21): 22.30 ± 1.30 g
- Average rate of weight change of the animals ([2]; Day 23): 9.32 ± 3.82 %
- Average weight of the animals ([2]; Day 23): 22.60 ± 1.50 g
- Average rate of weight change of the animals ([2]; Day 25): 12.20 ± 4.70%
- Average weight of the animals ([2]; Day 25): 23.20 ± 1.70 g
- Average rate of weight change of the animals ([2]; Day 28): 15.14 ± 3.64%
- Average weight of the animals ([2]; Day 28): 23.80 ± 1.50 g
- Average rate of weight change of the animals ([2]; Day 30): 14.22 ± 2.22%
- Average weight of the animals ([2]; Day 30): 23.60 ± 1.20 g
